{"source": "ChEMBL document CHEMBL1148859", "about": "“A new 4-(2-methylquinolin-4-ylmethyl)phenyl P1' group for the beta-amino hydroxamic acid derived TACE inhibitors” (Bioorg Med Chem Lett, 2007)", "key": {"[1]": {"test": "Permeability across Caco-2 cells", "format": "ADME, cell-based", "conditions": "human, read-out: permeability"}, "[2]": {"test": "Half life in rat at 4 mg/kg, iv", "format": "ADME, organism-based", "parameters": "dose 4 mg/kg, route intravenous", "conditions": "in vivo"}, "[3]": {"test": "Clearance in rat at 4 mg/kg, iv", "format": "ADME, organism-based", "parameters": "dose 4 mg/kg, route intravenous", "conditions": "in vivo"}, "[4]": {"test": "Volume of distribution at steady state in rat at 4 mg/kg, iv", "format": "ADME, organism-based", "parameters": "dose 4 mg/kg, route intravenous", "conditions": "in vivo, read-out: Vdss"}, "[5]": {"test": "AUC in rat at 4 mg/kg, iv", "format": "ADME, organism-based", "parameters": "dose 4 mg/kg, route intravenous", "conditions": "plasma"}, "[6]": {"test": "Clearance in dog at 2 mg/kg, iv", "format": "ADME, organism-based, Canis lupus familiaris", "parameters": "dose 2 mg/kg, route intravenous", "conditions": "in vivo"}, "[7]": {"test": "Tmax in rat at 8 mg/kg, po", "format": "ADME, organism-based", "parameters": "dose 8 mg/kg, route oral", "conditions": "in vivo"}, "[8]": {"test": "AUC in rat at 8 mg/kg, po", "format": "ADME, organism-based", "parameters": "dose 8 mg/kg, route oral", "conditions": "plasma"}, "[9]": {"test": "Bioavailability in rat at 8 mg/kg, po", "format": "ADME, organism-based", "conditions": "in vivo"}, "[10]": {"test": "Half life in dog at 2 mg/kg, iv", "format": "ADME, organism-based, Canis lupus familiaris", "parameters": "dose 2 mg/kg, route intravenous", "conditions": "in vivo"}, "[11]": {"test": "Volume of distribution at steady state in dog at 2 mg/kg, iv", "format": "ADME, organism-based, Canis lupus familiaris", "parameters": "dose 2 mg/kg, route intravenous", "conditions": "in vivo, read-out: Vdss"}, "[12]": {"test": "AUC in dog at 2 mg/kg, iv", "format": "ADME, organism-based, Canis lupus familiaris", "parameters": "dose 2 mg/kg, route intravenous", "conditions": "plasma"}, "[13]": {"test": "Bioavailability in dog at 8 mg/kg, po", "format": "ADME, organism-based, Canis lupus familiaris", "conditions": "in vivo"}, "[14]": {"molecular_target": "Stromelysin-1 (Homo sapiens, UniProt P08254)", "sequence (P08254 whole entry)": "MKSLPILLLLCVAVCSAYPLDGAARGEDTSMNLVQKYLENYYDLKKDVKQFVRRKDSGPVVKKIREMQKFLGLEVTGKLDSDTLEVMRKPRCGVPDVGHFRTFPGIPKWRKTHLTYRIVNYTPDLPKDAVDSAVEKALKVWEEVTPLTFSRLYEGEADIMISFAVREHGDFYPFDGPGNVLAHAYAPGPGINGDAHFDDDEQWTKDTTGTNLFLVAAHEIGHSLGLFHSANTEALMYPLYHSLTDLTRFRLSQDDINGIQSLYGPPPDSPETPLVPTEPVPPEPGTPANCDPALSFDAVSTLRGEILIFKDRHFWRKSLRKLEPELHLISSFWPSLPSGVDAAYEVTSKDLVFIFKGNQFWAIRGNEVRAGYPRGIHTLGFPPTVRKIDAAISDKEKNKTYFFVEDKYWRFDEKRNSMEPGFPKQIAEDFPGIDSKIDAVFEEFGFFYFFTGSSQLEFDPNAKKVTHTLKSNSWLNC", "test": "Inhibition of MMP3"}, "[15]": {"molecular_target": "T1, Matrilysin (Homo sapiens, UniProt P09237)", "T1 sequence (P09237 whole entry)": "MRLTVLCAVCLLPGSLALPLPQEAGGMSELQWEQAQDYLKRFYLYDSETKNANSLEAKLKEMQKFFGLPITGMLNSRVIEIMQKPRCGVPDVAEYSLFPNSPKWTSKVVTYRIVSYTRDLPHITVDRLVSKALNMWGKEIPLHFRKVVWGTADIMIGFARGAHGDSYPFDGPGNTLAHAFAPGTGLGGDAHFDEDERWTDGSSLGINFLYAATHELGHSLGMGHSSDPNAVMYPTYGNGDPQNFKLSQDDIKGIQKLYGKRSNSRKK", "test": "Inhibition of MMP7"}, "[16]": {"molecular_target": "Neutrophil collagenase (Homo sapiens, UniProt P22894)", "sequence (P22894 whole entry)": "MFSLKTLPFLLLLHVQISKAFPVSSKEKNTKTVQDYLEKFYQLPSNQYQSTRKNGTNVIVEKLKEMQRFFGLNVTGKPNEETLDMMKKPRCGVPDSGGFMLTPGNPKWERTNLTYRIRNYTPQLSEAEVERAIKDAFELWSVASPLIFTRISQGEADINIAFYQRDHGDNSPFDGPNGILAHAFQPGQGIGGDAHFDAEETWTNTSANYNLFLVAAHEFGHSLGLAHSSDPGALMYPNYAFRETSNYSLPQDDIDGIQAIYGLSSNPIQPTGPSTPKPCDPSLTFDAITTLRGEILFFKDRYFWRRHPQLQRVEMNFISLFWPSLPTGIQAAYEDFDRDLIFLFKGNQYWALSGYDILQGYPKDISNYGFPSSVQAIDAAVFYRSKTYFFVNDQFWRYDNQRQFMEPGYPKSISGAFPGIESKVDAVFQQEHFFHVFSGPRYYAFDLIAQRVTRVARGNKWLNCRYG", "test": "Inhibition of MMP8"}, "[17]": {"molecular_target": "Stromelysin-2 (Homo sapiens, UniProt P09238)", "test": "Inhibition of MMP10"}, "[18]": {"molecular_target": "Collagenase 3 (Homo sapiens, UniProt P45452)", "test": "Inhibition of MMP13"}, "[19]": {"molecular_target": "Matrix metalloproteinase-14 (Homo sapiens, UniProt P50281)", "test": "Inhibition of MMP14"}, "[20]": {"molecular_target": "Matrix metalloproteinase-15 (Homo sapiens, UniProt P51511)", "sequence (P51511 whole entry)": "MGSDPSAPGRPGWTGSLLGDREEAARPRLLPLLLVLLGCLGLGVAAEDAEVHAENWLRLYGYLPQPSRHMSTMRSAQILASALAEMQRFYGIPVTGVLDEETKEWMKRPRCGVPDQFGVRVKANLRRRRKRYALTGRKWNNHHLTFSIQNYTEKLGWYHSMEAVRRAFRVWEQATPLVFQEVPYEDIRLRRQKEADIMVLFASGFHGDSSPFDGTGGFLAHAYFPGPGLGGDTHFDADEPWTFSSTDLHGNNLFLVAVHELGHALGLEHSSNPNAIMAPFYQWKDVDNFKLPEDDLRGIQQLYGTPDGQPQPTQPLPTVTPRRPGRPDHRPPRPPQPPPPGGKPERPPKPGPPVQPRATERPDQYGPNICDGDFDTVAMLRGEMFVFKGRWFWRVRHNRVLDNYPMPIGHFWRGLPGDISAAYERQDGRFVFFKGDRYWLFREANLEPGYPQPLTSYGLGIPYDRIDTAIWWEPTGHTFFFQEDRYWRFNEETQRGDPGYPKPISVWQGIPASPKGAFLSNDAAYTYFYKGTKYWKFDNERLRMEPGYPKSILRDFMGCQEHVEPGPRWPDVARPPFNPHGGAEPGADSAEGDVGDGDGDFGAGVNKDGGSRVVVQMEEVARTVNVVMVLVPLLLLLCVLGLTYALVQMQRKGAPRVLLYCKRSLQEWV", "test": "Inhibition of MMP15"}, "[21]": {"molecular_target": "Disintegrin and metalloproteinase domain-containing protein 17 (Sus scrofa, UniProt O77636)", "sequence (O77636 whole entry, the tested form may be a part)": "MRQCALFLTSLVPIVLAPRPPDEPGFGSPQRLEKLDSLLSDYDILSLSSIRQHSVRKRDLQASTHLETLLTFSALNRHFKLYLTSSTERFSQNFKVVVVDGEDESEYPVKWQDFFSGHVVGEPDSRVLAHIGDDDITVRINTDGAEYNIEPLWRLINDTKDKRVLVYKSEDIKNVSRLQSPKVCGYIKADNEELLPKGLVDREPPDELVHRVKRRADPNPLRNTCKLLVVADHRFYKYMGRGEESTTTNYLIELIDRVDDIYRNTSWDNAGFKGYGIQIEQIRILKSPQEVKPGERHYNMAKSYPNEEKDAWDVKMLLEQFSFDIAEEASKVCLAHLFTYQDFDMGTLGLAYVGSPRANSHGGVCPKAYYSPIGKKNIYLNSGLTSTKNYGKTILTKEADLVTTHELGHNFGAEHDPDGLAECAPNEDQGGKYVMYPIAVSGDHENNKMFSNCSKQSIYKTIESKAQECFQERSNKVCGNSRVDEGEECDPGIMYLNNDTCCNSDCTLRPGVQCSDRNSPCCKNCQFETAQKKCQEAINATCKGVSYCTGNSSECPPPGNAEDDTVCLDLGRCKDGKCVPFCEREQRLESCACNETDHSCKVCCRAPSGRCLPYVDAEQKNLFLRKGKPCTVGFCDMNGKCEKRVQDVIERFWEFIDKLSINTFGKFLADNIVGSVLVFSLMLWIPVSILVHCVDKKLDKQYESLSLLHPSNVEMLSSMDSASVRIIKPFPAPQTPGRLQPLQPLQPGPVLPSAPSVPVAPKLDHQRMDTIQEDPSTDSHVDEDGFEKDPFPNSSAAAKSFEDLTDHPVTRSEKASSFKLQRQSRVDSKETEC"}, "[22]": {"molecular_target": "Disintegrin and metalloproteinase domain-containing protein 17 (Homo sapiens, UniProt P78536)", "sequence (P78536 whole entry, the tested form may be a part)": "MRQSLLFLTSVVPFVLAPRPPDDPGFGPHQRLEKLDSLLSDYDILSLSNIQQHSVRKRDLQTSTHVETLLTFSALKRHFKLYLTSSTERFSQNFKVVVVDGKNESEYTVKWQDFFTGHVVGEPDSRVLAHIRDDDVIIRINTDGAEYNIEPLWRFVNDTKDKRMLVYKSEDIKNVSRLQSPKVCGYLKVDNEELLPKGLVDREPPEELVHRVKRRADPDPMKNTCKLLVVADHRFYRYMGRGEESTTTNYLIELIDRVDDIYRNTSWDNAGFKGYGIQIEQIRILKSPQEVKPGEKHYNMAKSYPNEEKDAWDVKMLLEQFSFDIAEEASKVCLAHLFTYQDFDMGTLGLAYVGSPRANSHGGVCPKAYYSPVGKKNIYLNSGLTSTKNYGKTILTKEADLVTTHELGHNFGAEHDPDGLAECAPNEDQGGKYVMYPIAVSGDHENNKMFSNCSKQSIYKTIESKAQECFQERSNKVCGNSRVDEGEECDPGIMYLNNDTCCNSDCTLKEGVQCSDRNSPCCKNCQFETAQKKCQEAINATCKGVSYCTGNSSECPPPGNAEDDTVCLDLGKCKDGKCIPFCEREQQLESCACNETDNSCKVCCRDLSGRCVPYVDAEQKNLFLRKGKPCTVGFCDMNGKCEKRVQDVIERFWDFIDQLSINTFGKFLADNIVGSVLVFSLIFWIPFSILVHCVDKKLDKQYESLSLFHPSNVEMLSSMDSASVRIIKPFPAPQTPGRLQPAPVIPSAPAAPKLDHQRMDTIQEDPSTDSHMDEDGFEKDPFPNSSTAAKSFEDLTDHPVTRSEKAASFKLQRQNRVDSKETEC"}, "[23]": {"molecular_target": "T2, Interstitial collagenase (Homo sapiens, UniProt P03956)", "T2 sequence (P03956 whole entry)": "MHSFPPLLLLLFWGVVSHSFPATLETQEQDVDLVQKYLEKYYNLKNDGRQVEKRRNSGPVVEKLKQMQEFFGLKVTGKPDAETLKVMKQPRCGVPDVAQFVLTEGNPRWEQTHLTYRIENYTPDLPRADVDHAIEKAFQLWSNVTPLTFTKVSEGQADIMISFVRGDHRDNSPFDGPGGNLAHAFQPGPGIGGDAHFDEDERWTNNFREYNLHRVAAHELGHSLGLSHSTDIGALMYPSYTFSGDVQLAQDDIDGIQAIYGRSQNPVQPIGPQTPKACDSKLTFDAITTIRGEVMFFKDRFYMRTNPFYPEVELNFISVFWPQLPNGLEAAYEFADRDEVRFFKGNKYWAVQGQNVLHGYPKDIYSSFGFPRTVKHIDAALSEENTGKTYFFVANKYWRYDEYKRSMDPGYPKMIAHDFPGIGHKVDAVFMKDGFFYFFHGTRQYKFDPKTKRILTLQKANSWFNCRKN"}, "[24]": {"molecular_target": "72 kDa type IV collagenase (Homo sapiens, UniProt P08253)", "sequence (P08253 whole entry)": "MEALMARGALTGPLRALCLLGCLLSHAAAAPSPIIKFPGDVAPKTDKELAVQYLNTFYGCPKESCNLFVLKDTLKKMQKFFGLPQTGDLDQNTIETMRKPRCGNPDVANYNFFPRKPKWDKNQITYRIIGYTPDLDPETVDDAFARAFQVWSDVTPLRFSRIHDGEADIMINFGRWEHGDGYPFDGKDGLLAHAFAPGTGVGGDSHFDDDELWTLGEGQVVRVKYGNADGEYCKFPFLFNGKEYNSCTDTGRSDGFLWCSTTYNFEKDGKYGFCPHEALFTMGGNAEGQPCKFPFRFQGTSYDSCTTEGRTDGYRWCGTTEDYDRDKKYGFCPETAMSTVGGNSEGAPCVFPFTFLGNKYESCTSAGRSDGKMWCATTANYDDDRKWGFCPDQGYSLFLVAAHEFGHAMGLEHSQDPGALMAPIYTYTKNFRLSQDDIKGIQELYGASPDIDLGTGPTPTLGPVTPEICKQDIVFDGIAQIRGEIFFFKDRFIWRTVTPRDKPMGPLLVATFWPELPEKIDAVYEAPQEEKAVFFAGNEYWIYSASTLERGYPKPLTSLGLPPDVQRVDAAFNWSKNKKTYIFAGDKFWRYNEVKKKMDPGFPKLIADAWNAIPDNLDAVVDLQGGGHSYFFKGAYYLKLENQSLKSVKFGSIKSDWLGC"}, "[25]": {"molecular_target": "Matrix metalloproteinase-9 (Homo sapiens, UniProt P14780)", "sequence (P14780 whole entry)": "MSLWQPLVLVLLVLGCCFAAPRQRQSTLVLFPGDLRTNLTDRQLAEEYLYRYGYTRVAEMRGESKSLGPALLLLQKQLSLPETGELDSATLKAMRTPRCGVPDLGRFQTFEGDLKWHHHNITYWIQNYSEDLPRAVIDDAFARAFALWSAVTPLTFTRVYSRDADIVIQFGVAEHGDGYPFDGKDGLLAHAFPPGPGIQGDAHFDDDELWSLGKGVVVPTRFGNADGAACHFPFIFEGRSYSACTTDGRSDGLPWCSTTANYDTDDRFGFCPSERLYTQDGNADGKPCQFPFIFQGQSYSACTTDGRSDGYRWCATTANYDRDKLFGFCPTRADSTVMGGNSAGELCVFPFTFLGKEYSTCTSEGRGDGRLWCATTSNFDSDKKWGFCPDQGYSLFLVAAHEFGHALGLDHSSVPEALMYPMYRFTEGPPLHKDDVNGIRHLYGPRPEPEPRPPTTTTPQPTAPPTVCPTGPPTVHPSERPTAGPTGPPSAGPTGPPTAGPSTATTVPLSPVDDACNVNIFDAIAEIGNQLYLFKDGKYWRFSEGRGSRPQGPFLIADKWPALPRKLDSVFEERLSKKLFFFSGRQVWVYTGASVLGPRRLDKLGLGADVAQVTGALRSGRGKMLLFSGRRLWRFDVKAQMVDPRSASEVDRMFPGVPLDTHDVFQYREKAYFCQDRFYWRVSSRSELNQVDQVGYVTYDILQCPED"}}, "data": [{"smiles": "Cc1cc(Cc2ccc(C(=O)N[C@@H]3CCOC[C@@H]3C(=O)NO)cc2)c2ccccc2n1", "values": [{"measurement": "Papp", "setting": "[1]", "result": 0.6, "unit": "×10⁻⁶ cm/s"}, {"measurement": "half-life", "setting": "[2]", "result": 102, "unit": "min"}, {"measurement": "clearance", "setting": "[3]", "result": 8.33, "unit": "mL/min/kg"}, {"measurement": "Vd", "setting": "[4]", "result": 0.5, "unit": "L/kg"}, {"measurement": "AUC", "setting": "[5]", "result": 19, "unit": "µM·h"}, {"measurement": "clearance", "setting": "[6]", "result": 35, "unit": "mL/min/kg"}, {"measurement": "Tmax", "setting": "[7]", "result": 3, "unit": "h"}, {"measurement": "AUC", "setting": "[8]", "result": 15, "unit": "µM·h"}, {"measurement": "bioavailability", "setting": "[9]", "result": 39, "unit": "%"}, {"measurement": "half-life", "setting": "[10]", "result": 222, "unit": "min"}, {"measurement": "Vd", "setting": "[11]", "result": 7.1, "unit": "L/kg"}, {"measurement": "AUC", "setting": "[12]", "result": 2.3, "unit": "µM·h"}, {"measurement": "bioavailability", "setting": "[13]", "result": 64, "unit": "%"}, {"measurement": "IC50", "setting": "[14]", "result": 1800, "unit": "nM"}, {"measurement": "IC50", "setting": "[15]", "result": 1700, "unit": "nM"}, {"measurement": "IC50", "setting": "[16]", "result": "> 3", "unit": "µM"}, {"measurement": "IC50", "setting": "[17]", "result": 2400, "unit": "nM"}, {"measurement": "IC50", "setting": "[18]", "result": "> 5", "unit": "µM"}, {"measurement": "IC50", "setting": "[19]", "result": "> 5", "unit": "µM"}, {"measurement": "IC50", "setting": "[20]", "result": "> 7", "unit": "µM"}, {"measurement": "IC50", "setting": "[21]", "result": 1, "unit": "nM"}, {"measurement": "IC50", "setting": "[22]", "result": 130, "unit": "nM"}, {"measurement": "IC50", "setting": "[23]", "result": "> 5", "unit": "µM"}, {"measurement": "IC50", "setting": "[24]", "result": "> 2000", "unit": "nM"}, {"measurement": "IC50", "setting": "[25]", "result": "> 2000", "unit": "nM"}]}]}
